Test results from article PMC4545774, “Identification of inhibitors that target dual-specificity phosphatase 5 provide new insights into the binding requirements for the two phosphate pockets” (BMC Biochemistry, 2015).
“And” between values parts separate entries of the source, which are not always exact repeats. Identical values can stand only once. “Also recorded” adds a separate entry of the source. Like-named read-outs stand apart in the source and are kept apart here. Blank lines part the entries; values can stand above or below the molecule they belong to.

Experiments:
[1] = target: T1, DUSP5 PD(WT) (Homo sapiens, UniProt Q16690); test: p-nitrophenol phosphate (pNPP) phosphatase activity / IC50 assay; type: biochemical; settings: for effect of detergent on inhibition: presence vs absence of 0.5 % Triton X-100
T1 construct: hexa-histidine (N); made in house; host or cells: E. coli BL21(DE3)
T1 sequence (Q16690 178-319 limits assumed): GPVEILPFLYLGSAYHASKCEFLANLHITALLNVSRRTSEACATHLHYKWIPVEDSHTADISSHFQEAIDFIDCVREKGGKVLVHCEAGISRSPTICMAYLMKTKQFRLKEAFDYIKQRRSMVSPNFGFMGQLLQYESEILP
Text: To measure enzymatic activity of the DUSP5 PD and the inhibitory capacity of selected molecules, an in vitro phosphatase assay was developed based on previous studies. In this assay, DUSP5 PD will dephosphorylate the substrate p-nitrophenol phosphate (pNPP, Sigma Aldrich), yielding p-nitrophenolate, which absorbs at 405 nm with an extinction coefficient of 18,000 M^−1 cm^−1.
Thus, an increase in absorbance at 405 nm corresponds to the turnover of pNPP to p-nitrophenolate. The assay was initially optimized in 1 mL quartz cuvettes, then was subsequently optimized for and validated in a 96-well plate format. All IC50 values were obtained using the 96-well plate assay format (see below). The assay buffer contained 100 mM Tris, 100 mM sodium chloride, 5 mM magnesium chloride, and 1 mM DTT at pH 7.5. The pNPP substrate was prepared as a 50 mM stock by dissolving the solid substrate in assay buffer. The DUSP5 PD and pNPP were assayed initially in a cuvette (1 mL total volume) and initial velocities were fitted to the Michaelis-Menten equation:1 v=VmaxS/Km+S where v is the initial velocity, Vmax is the maximum velocity, Km is the Michaelis constant, and [S] is the concentration of pNPP. Data were fitted using a nonlinear least squares fit to eq. 1, with GraphPad Prism 6 software.
For the 96-well plate validation assay, sodium orthovanadate (Sigma Aldrich) was utilized as a positive control for inhibition at a final concentration of 10 μM, to completely block DUSP5(WT) enzymatic activity. All plate assays were performed in standard 96-well clear bottom plates (Thermo Scientific Nunc) with a total assay volume of 200 μL, using a SpectraMax M5 Microplate Reader (Molecular Devices). The plate validation assay was performed with replicate columns of positive control wells, negative control wells and blank wells. Blank columns contained only buffer and pNPP. Negative control (uninhibited) contained buffer, pNPP, and DUSP5 PD(WT); and, positive control contained the same components, but also contained 10 μM sodium orthovanadate. The plate was then shaken and allowed to equilibrate in the spectrophotometer at 25 °C for 30 min. After incubation, 4 μL of a 50 μM enzyme stock was dispensed into appropriate wells utilizing a single-channel pipette. This produced a final enzyme concentration of 1 μM. Before a read was taken, the plate was shaken for five seconds. […] The endpoint reading was subsequently taken at 90 min after initiation of reaction.
IC50 values were obtained using the assay described above, in 96 well plates. The maximum inhibitor concentration screened in any plate was […] and the minimum screened concentration was 1 μM. The IC50 plate was designed so that the first column of wells served as blanks, with wells containing only buffer and substrate. The second column of wells functioned as the plate negative control, with each well containing buffer, substrate and enzyme. The remaining wells in the plate contained buffer, substrate, enzyme, and varying amounts of inhibitor, with inhibitor concentration increasing from left to right across the plate. Data points were collected at a minimum in triplicate, and inhibitor concentrations were chosen to provide data equally spread on a logarithmic scale. The composition of buffer and the concentrations of substrate and enzyme utilized were identical to those in the plate validation assay. After initiation and shaking, a ten-minute kinetic read was taken.
For each plate assayed, the slope values for all negative control wells were averaged and the measured value considered representative of full enzymatic activity.

[2] = Nephelometry (aggregation in solution); type: physicochemical; settings: 10-100 μM, pH 7.5 buffer; for aggregation: nephelometry
Method: Nephelometry is a technique for measuring the relative aggregation of particles in solution, based on the light-scattering properties of molecular aggregates. We performed nephelometry to explore the ability of the chemicals studied herein to form aggregates, which can lead to artifactual inhibition effects. Compounds were tested for aggregation in 96-well plates using a buffer containing 100 mM Tris base, 100 mM sodium chloride, and 5 mM magnesium chloride at pH 7.5. Each compound analyzed in these experiments contained concentrations of compound ranging from 10-100 μM, recorded in quadruplet. Each plate was analyzed at two separate gain values of 52 and 72. Data were collected using a BMG NEPHELOstar Plus, equipped with a 635 nm laser.

[3] = test system: panel of 21 phosphatases; test: Screen against a panel of 21 phosphatases; type: biochemical; settings: at up to 30 μM
[4] = target: T2, full length DUSP5 (Homo sapiens, UniProt Q16690); test: ERK dephosphorylation assay (full-length DUSP5, pERK2 substrate, Western blot); type: biochemical; settings: full length DUSP5, pERK2 as substrate
T2 construct: in the more biologically relevant assay with full length DUSP5 and using pERK2 as substrate; made in house
T2 sequence (Q16690 1-384): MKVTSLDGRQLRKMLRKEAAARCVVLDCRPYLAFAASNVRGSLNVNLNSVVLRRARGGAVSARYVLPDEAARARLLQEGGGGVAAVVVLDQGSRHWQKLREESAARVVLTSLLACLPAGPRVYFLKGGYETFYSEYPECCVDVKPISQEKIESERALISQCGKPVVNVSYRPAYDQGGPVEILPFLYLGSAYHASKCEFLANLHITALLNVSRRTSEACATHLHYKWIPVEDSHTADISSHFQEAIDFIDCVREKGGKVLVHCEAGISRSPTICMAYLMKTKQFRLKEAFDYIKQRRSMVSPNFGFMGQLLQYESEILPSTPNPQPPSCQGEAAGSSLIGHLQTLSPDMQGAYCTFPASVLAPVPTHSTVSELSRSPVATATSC
Method: For this assay, 10 ng of GST-tagged recombinant phosphorylated ERK2 (R&D Systems, 1230-KS) was incubated with and without the indicated DUSP5 proteins (0.5 nM final concentration) for 15 min at room temperature, with or without the indicated drugs. The reactions were halted with 2x Laemmli sample buffer and subjected to SDS-PAGE. The proteins were transferred to polyvinylidene difluoride (PVDF) and immunoblotted using antibodies to pERK (Cell Signaling Tech., #9106) and total ERK, which includes both phosphorylated and unphosphorylated ERK1 and ERK2 (Cell Signaling Tech., #9102). Bound antibodies were visualized using horseradish peroxidase-linked anti-mouse IgG (Cell Signaling Tech, #7076S) and anti-rabbit IgG (Cell Signaling Tech, #7074S), respectively, and ECL reagents (Pierce, #34708) according to the manufacturer’s protocol. For calculating IC50 values, gel bands were imaged by chemiluminescence with either film or digital image capture by a FluorChem HD2 imager (Alpha Innotech). Density of each band was quantified with ImageJ software by using the gel analysis tool. Relative values of phosphorylated ERK present for each drug concentration treatment compared to pERK only controls were calculated. These relative values were then used to obtain IC50 values with GraphPad Prism 6 software. […]

[5] = test system: T3, DUSP5 PD(C263S); test: NMR binding assay (2D 1H-15N HSQC); parameters: species or system human; settings: 250 μM RR505 or 500 μM CSD^3_2320, pH 6.8
T3 construct: a C-terminal phosphatase domain (PD); hexa-histidine (N); made in house; host or cells: E. coli BL21(DE3)
Method: NMR samples of DUSP5 PD(C263S) were prepared for 2D ^1H-^15N HSQC (heteronuclear single quantum coherence) spectral titration studies. The ^15 N-labeled DUSP5 PD(C263S) protein was concentrated using an Amicon Ultra-4 centrifugal device (Millipore) to 600 μM. NMR samples were prepared with the following conditions for RR505: 250 μM RR505, 250 μM DUSP5 PD(C263S), 10 % D2O, 50 mM potassium phosphate, 100 mM KCl, and 2 mM DTT at pH 6.8 and for CSD^3-2320: 0 or 500 μM CSD^3-2320, 500 μM DUSP5 PD(C263S), 10 % D2O, 50 mM potassium phosphate, 100 mM KCl, and 2 mM DTT at pH 6.8. NMR experiments were performed on a 500 MHz Varian NMR System using a triple resonance probe with z-axis gradients at 25 °C.

[6] = target: T1, DUSP5 PD(WT); test: p-nitrophenol phosphate (pNPP) phosphatase activity / IC50 assay; type: biochemical; settings: 1 mL cuvettes, pNPP substrate
[7] = pNPP as substrate, Michaelis-Menten fit, 1 mL cuvette

- IC50 ([1]; phosphatase domain alone, pNPP as substrate, read-out: IC50): 32700 µM and 33000 µM
- aggregation ([2]; listed as CSD3_2320): no tendency
- IC50 ([4]; read-out: IC50 (mean)): 33 µM
- IC50 ([4]; read-out: IC50 (range)): 8 to 96 µM
- binding by HSQC cross-peak shifts [5]: direct binding
- binding by HSQC cross-peak shifts ([5]; listed as CSD3_2320): binding
SMILES: O=S(=O)(O)c1cc(O)c2c(S(=O)(=O)O)cccc2c1 [CSD^3_2320]
- aggregation [2]: does not aggregate; also recorded: no propensity to aggregate; also recorded: no tendency to aggregate
- inhibition of panel phosphatases [3]: not inhibit any of them significantly

- effect of detergent on inhibition [1]: no detergent-effect
- aggregation [2]: do not appear to form aggregates
SMILES: O=S(=O)(O)c1ccc2c(S(=O)(=O)O)cc(S(=O)(=O)O)cc2c1 [NTS, Naphthalene trisulfonate]

SMILES: O=S(=O)([O-])c1cc(S(=O)(=O)[O-])c2[nH]c3c(S(=O)(=O)[O-])cc(S(=O)(=O)[O-])cc3c2c1.[Na+].[Na+].[Na+].[Na+] [RR506, Carbazole-1,3,6,8-tetrasulfonic acid, tetrasodium salt]
- IC50 ([1]; pNPP substrate, 96-well plate, Triton X-100 at 0.1 %, read-out: IC50 from enzyme assay): 16000 ± 2000 µM
- aggregation [2]: do not appear to form aggregates

SMILES: Cc1ccc(C(=O)Nc2ccc(S(=O)(=O)O)c3cc(S(=O)(=O)O)cc(S(=O)(=O)O)c23)cc1NC(=O)c1cccc(NC(=O)Nc2cccc(C(=O)Nc3cc(C(=O)Nc4ccc(S(=O)(=O)O)c5cc(S(=O)(=O)O)cc(S(=O)(=O)O)c45)ccc3C)c2)c1 [Suramin]
- inhibition at 1 µM ([1]; 1 μM suramin, 5 mM pNPP, read-out: plateau level of inhibition with increasing Triton X-100): 30%
- Ki ([1]; competitive versus pNPP, absence of Triton X-100): 24.6 µM and 25 µM
- effect of detergent on inhibition [1]: loss and loss of some inhibitory capability
- effect of detergent on inhibition ([1]; listed as suramin): detergent decreases suramin inhibition
- mode of inhibition ([1]; varied pNPP and inhibitor): competitive inhibitor; also recorded: competitive inhibition
- concentration at which aggregates start forming [2]: around 25 μM
- aggregation [2]: forms aggregates in vitro

SMILES: O=[N+]([O-])c1ccc(OP(=O)(O)O)cc1 [pNPP, p-nitrophenol phosphate]
- Km [1, 7]: 7.6 ± 0.4 mM
- Vmax [1, 7]: 1.35 ± 0.02 × 10^−3 μmol/min

SMILES: [Na+].[Na+].[Na+].[O]=[V]([O-])([O-])[O-] [sodium orthovanadate]
- IC50 [6]: 0.088 ± 0.008 µM
